Converted amounts (≈) assume the structure as drawn. “Also recorded” adds a separate entry of the source. Where two headings read alike, the source gives them in different places.

The values below come from patent US6140367A, “Use of ethylene diamine disuccinate for preparing a medicament with antiviral properties” (priority 1996, dated 2000).

The subject of data set [1] is cytomegaloviruses (CMV laboratory strain AD169). The experiment in a line: ELISA of production of CMV late antigens in HFF cells. As to conditions: for therapeutic index: quotient TC50/IC50, HFF cells. The data set is classed as cell-based. The procedure:
Antiviral activity: cells and viruses employed
(§1) Human foreskin fibroblasts (HFF) are grown in a nutrient medium consisting of Eagle's minimal essential medium (EMEM) to which 10% fetal calf serum has been added.
The CMV laboratory strain AD169 is used. The viruses are propagated in EMEM nutrient medium to which 4% fetal calf serum has been added (maintenance medium). The virus titer is established by determining so-called immediate early antigen forming units (IEFUs) which are formed in the maintenance medium (Gerna et al. (1992), Antiviral Res. Vol. 19: 333-345).
The antiviral effect of the substances on the propagation of cytomegaloviruses is determined by different parameters:
In an ELISA (enzyme-linked immunosorbent assay), the production of CMV late antigens is determined. […] The substances according to the invention have an IC50 value of 4 μg/ml±1 μg/ml.

Data set [2] in a line: in vitro. The data set is classed as cell-based. As to conditions: human, hff cells. As for the experimental part: as §1
(§2) The cell vitality is measured in an HFF cell culture using an MTT assay. The result is expressed as the TC50 value, which is the concentration at which 50% of the cells tested are still vital. In HFF cells, it is 435 μg/ml for the substances according to the invention.

The conditions of data set [3]: cited from earlier work.
Data set [4] has as its system antibody production. As to conditions: intraperitoneal, mice; cited from earlier work.
Data set [5] has as its system lymphocyte proliferation. The experiment in a line: phytohemagglutinin stimulated lymphocyte proliferation ([3H]-thymidine). Type of data set: cell-based. As for the experimental part: For a proliferation assay, lymphocyte cultures were started in mixed lymphocyte cultures (MLC), or with 1% phytohemagglutinin (PHA), in a total volume of 200 μl of culture medium. 18 to 20 hours before the measurement, 0.1 μCi methyl-[^3 H]-thymidine (NEN, Germany) was added. Radiolabeled DNA was harvested on filter membranes (Schleicher & Schull, Germany). The radioactivity was quantified with a scintillation counter (Zinsser, Germany). The sample PBL pertains to peripheral blood lymphocytes as a control.

Data set [6] relates to B cells. As to conditions: in vitro; cited from earlier work.
In data set [7] the test system is phospholipase C. As to conditions: cited from earlier work.
In data set [8] the test system is T cells. As to conditions: in vitro; cited from earlier work.
The subject of data set [9] is phospholipase D. The note with it: cited from earlier work.
Data set [10] deals with DTH (delayed type hypersensitivity) reaction. The note with it: intraperitoneal, mice; cited from earlier work.
In data set [11] the test system is Human foreskin fibroblasts (HFF). Put plainly: in vitro. The data set is classed as cell-based. The note with it: hff cells. The procedure: as §1, §2
Data set [12] has as its system human cytomegaloviruses. As to conditions: literature; cited from earlier work.
In data set [13] the test system is Varicella zoster viruses. As to conditions: literature; cited from earlier work.
Data set [14] deals with Epstein-Barr viruses. As to conditions: literature; cited from earlier work.
In data set [15] the test system is viral DNA polymerases. As to conditions: cited from earlier work.
In data set [16] the test system is viral reverse transcriptases. As to conditions: cited from earlier work.
For data set [17], the system named is Herpes simplex viruses. The note with it: literature; cited from earlier work.
In data set [18] the test system is hepatitis viruses. The note with it: literature, cell cultures; cited from earlier work.
The conditions of data set [19]: literature; cited from earlier work.
The conditions of data set [20]: mouse, in vivo; cited from earlier work.
Setting [21] is: Human betaherpesvirus 5, AD169, production of CMV late antigens, ELISA, HFF cells, read-out: inhibitory concentration IC50.
The mark [22] stands for this setting: production of CMV late antigens, ELISA, HFF cells.

`O=C(O)C[C@@H](NCCN[C@H](CC(=O)O)C(=O)O)C(=O)O` [(R,R)-N,N'-ethylenediamine disuccinate]: the IC50 in data set [1] (setting [21]) turned out to be 41 µg/mL. For the same compound, the therapeutic index in [1] is recorded as at least 2.2. Further, the CC50 in data set [2] is at least 100 µg/mL.
For `O=C(O)C[C@H](NCCN[C@H](CC(=O)O)C(=O)O)C(=O)O` [(R,S)-N,N'-ethylenediamine disuccinate] the same measures were 46 µg/mL, at least 2.2 and at least 100 µg/mL.
Take `O=C(O)CC[C@H](NCCN[C@@H](CCC(=O)O)C(=O)O)C(=O)O` [(S,S)-N,N'-ethylenediamine diglutamate]: the IC50 in [1] (setting [21]) is at least 100 µg/mL. Moreover, the CC50 in [2] was at least 100 µg/mL.
For the compound `O=C(O)C[C@H](NCCN[C@@H](CC(=O)O)C(=O)O)C(=O)O` [(S,S)-N,N'-ethylenediamine disuccinate], the IC50 in [1] (Human betaherpesvirus 5, AD169, HFF, activity against cytomegaloviruses, read-out: IC50) came out at 4 µg/mL. The compound also came in with a therapeutic index in data set [1] of 109. In addition, the toxicity in mice result in [3] was “relatively low”. In [2], half-maximal cytotoxicity (CC50) was put at 435 µg/mL. The antibody production entry in data set [4] is on record as “suppressed”. In [5], the immunosuppressive activity entry is given as “inhibition of phytohemagglutinin stimulated lymphocyte proliferation”. Moreover, in [6], the “blastogenesis of B cells” value was “suppressed”. Also, in [7], the “inhibition of phospholipase C” value is recorded as “inhibits”. Also, the “blastogenesis of T cells” value in data set [8] was “suppressed”. Also, in [9], the “inhibition of phospholipase D” value is recorded as “inhibits”. Besides, the “DTH (delayed type hypersensitivity) reaction” value in data set [10] is “suppressed”.
Consider `CC(CN[C@@H](CCC(=O)O)C(=O)O)N[C@@H](CCC(=O)O)C(=O)O` (stereo partly drawn) [(S,S)-N,N'-propylenediamine diglutamate], for which, in data set [1] (setting [22]), the “inhibitory concentration IC50” value is at least 100 µg/mL. For the same compound, the “toxic concentration TC50” value in [11] is at least 100 µg/mL.
With `CC(CN[C@@H](CC(=O)O)C(=O)O)N[C@@H](CC(=O)O)C(=O)O` (stereo partly drawn) [(S,S)-N,N'-propylenediamine disuccinate], the “inhibitory concentration IC50” value in data set [1] (setting [22]) is at least 100 µg/mL. The “toxic concentration TC50” value in data set [11] is at least 100 µg/mL.
In the case of `O=C(O)P(=O)(O)O` [Foscarnet], in data set [12], the “antiviral activity, cytomegaloviruses” value is “virostatic effect” and the resistance of cytomegaloviruses entry is reported as “more resistant”. Also, in data set [13], the “antiviral activity, Varicella zoster viruses” value was “selective activity”. In addition, the “antiviral activity, Epstein-Barr viruses” value in data set [14] was “selective activity”. Also, the “inhibition of viral DNA polymerases” value in [15] is listed as “inhibition”. The “inhibition of viral reverse transcriptases” value in [16] is “inhibition”. For the same compound, the “antiviral activity, Herpes simplex viruses” value in data set [17] is “selective activity”. Moreover, the “antiviral activity, hepatitis viruses” value in data set [18] is “selective activity”.
For `Nc1nc(O)c2ncn(COC(CO)CO)c2n1` [Ganciclovir], in [12], the resistance of cytomegaloviruses result is “more resistant”. The “toxicity / side effects” value in [19] was “high side-effect level; also recorded: leads to neutropenia”. Besides, the “antiviral activity, Varicella zoster viruses” value in data set [13] is recorded as “effective”. The “antiviral activity, Epstein-Barr viruses” value in data set [14] is listed as “effective”. Further, the “antiviral activity, Herpes simplex viruses” value in data set [17] was “effective”. Moreover, the tumor development result in data set [20] is given as “observed to develop tumors”.
For `CC(=O)N(O)CCCCCNC(=O)CCC(=O)N(O)CCCCCNC(=O)CCC(=O)N(O)CCCCCN` [desferrioxamine], in [1] (setting [21]), the IC50 turned out to be 4.1 µg/mL (≈ 7.31 µM). In data set [1], this compound displayed a therapeutic index of 3. The “antiviral activity, cytomegaloviruses” value in data set [12] was “successfully used”. The compound further came in with a CC50 in [2] of 12 µg/mL (≈ 21.4 µM). In data set [19], the “toxicity / side effects” value is reported as “low toxicity”. In addition, in data set [13], the “antiviral activity, Varicella zoster viruses” value was “successfully used”. The “antiviral activity, Epstein-Barr viruses” value in [14] is listed as “successfully used”. For the same compound, the “antiviral activity, Herpes simplex viruses” value in data set [17] is on record as “successfully used”.
`O=C(O)CN(CCN(CC(=O)O)CC(=O)O)CCN(CC(=O)O)CC(=O)O` [diethylenetriaminepentaacetic acid]: the IC50 in [1] (setting [21]) amounted to 4 µg/mL (≈ 10.2 µM). The therapeutic index in data set [1] came to 31. It took 123 µg/mL (≈ 313 µM) to reach half-maximal cytotoxicity in data set [2] (CC50).
In the case of (R,R)-N,N'-propylenediamine disuccinate, the “inhibitory concentration IC50” value in data set [1] (setting [22]) was at least 100 µg/mL. In addition, in [11], the “toxic concentration TC50” value is at least 100 µg/mL.
